Data taken from ChEMBL document CHEMBL5653631, “A Potent and Selective ULK1 Inhibitor Suppresses Autophagy and Sensitizes Cancer Cells to Nutrient Stress” (iScience, 2018).
Blank lines part the entries; values can stand above or below the compound they belong to.

Tests used:
[1] = molecular target: Tyrosine-protein kinase Tec (Homo sapiens) (UniProt P42680); test: Inhibition of human recombinant TEC at 500 nM related to control ULK1
[2] = molecular target: Proto-oncogene tyrosine-protein kinase ROS (Homo sapiens) (UniProt P08922); test: Inhibition of human recombinant ROS at 500 nM in presence of ATP by radiometric assay relative to control
[3] = molecular target: Ephrin type-A receptor 7 (Homo sapiens) (UniProt Q15375); test: Inhibition of human recombinant EphA7 at 500 nM related to control ULK1
[4] = molecular target: T1, Ephrin type-B receptor 1 (Homo sapiens) (UniProt P54762); test: Inhibition of human recombinant EphB1 at 500 nM in presence of ATP by radiometric assay relative to control
T1 sequence (whole entry): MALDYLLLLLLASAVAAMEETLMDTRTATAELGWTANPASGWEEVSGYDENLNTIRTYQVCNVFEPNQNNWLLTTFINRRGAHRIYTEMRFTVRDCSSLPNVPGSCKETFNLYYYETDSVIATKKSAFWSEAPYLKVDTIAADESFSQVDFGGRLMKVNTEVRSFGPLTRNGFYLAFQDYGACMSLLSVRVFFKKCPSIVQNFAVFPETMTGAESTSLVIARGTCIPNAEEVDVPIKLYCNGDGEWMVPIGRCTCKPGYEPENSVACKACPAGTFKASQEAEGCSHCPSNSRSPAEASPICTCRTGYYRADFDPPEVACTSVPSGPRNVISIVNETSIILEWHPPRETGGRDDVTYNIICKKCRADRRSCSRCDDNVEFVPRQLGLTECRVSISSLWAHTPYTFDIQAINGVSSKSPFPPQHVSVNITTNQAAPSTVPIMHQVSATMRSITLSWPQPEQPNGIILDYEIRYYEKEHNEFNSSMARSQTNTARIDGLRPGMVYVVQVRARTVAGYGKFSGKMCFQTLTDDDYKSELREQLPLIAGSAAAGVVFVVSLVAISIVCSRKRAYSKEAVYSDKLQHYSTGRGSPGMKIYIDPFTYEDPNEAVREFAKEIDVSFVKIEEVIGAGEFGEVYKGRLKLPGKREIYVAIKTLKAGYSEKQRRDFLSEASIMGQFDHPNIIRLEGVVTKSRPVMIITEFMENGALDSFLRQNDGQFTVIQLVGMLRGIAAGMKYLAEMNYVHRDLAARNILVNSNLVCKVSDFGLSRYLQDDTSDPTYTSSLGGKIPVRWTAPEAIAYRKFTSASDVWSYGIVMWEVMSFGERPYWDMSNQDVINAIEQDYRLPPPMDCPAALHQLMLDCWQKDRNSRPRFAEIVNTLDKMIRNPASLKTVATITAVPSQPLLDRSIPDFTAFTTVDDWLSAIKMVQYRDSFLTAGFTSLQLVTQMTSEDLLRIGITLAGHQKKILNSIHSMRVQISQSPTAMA

[5] = molecular target: Tyrosine-protein kinase Lck (Homo sapiens) (UniProt P06239); test: Inhibition of human recombinant LCK at 40 nM related to control ULK1
[6] = molecular target: T2, Serine/threonine-protein kinase DCLK2 (Homo sapiens) (UniProt Q8N568); test: Inhibition of human recombinant DCAMKL2 at 40 nM related to control ULK1
T2 sequence (whole entry): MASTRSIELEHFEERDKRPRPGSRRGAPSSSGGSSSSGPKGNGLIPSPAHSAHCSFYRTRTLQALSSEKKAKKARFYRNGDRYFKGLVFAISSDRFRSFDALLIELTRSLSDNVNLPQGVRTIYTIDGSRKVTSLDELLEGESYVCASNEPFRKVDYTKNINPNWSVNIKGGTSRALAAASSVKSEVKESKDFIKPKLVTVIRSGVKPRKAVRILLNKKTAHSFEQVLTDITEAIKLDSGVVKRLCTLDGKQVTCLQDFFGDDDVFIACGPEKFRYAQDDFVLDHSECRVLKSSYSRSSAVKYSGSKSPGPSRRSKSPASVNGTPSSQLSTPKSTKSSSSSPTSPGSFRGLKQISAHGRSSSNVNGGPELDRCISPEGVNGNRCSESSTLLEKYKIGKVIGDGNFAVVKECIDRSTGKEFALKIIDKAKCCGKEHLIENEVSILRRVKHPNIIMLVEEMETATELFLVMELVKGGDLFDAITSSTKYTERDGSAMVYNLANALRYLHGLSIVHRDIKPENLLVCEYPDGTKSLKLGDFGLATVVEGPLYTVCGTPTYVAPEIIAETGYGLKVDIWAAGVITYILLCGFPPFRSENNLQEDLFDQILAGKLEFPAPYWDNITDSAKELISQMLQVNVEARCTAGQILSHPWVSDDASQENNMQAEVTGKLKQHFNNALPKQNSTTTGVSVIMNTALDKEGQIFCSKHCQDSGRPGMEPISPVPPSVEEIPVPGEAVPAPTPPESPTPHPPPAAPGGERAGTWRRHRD

[7] = molecular target: Tyrosine-protein kinase Yes (Homo sapiens) (UniProt P07947); test: Inhibition of human recombinant YES at 40 nM related to control ULK1
[8] = molecular target: T3, Homeodomain-interacting protein kinase 4 (Homo sapiens) (UniProt Q8NE63); test: Inhibition of human recombinant HIPK4 at 15 nM related to control ULK1
T3 sequence (whole entry): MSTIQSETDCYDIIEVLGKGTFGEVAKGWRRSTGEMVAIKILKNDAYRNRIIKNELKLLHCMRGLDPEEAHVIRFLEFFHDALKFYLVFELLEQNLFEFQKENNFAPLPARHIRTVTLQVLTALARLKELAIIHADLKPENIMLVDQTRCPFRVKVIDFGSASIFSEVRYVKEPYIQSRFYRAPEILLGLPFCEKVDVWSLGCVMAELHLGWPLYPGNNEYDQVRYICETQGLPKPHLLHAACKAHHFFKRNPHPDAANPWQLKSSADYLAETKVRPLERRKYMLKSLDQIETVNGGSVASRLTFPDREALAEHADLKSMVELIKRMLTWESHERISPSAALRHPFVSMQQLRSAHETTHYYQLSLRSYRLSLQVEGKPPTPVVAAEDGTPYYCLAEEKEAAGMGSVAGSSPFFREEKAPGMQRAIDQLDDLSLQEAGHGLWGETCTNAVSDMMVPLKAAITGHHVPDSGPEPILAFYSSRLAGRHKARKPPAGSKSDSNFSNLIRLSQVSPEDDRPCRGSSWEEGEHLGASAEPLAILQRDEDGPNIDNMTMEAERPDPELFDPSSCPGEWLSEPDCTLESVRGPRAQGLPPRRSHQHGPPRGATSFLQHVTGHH

[9] = molecular target: SRSF protein kinase 3 (Homo sapiens) (UniProt Q9UPE1); test: Inhibition of human recombinant MSSK1 at 15 nM related to control ULK1

Chain of Ephrin type-A receptor 7 (Homo sapiens) (Q15375 28-998 limits assumed): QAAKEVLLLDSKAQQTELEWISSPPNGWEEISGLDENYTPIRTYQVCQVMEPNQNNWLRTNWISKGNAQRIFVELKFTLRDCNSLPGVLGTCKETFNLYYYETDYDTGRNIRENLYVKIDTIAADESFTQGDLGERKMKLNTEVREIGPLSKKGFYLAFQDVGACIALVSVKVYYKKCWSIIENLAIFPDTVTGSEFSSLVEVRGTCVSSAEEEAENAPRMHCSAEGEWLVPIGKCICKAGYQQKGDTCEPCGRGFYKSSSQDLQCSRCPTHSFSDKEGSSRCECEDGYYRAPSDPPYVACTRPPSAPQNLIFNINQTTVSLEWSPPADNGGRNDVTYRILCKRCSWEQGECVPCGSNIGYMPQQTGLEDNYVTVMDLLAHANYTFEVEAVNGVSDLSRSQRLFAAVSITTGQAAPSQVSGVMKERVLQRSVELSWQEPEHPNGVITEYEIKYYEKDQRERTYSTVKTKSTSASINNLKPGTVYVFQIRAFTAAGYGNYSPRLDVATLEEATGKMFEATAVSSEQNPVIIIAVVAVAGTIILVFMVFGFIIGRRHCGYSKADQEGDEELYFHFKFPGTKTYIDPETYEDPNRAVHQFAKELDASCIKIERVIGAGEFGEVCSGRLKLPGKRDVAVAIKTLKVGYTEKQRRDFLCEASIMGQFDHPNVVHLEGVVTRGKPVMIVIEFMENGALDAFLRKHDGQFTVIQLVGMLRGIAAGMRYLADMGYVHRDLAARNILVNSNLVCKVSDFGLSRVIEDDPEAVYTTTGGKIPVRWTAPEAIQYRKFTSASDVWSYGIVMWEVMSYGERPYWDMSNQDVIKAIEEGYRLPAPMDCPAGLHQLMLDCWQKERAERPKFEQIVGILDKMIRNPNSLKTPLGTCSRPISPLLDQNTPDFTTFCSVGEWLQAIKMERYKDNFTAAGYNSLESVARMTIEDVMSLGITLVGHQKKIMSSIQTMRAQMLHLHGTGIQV
Chain of Tyrosine-protein kinase Lck (Homo sapiens) (P06239 2-509 limits assumed): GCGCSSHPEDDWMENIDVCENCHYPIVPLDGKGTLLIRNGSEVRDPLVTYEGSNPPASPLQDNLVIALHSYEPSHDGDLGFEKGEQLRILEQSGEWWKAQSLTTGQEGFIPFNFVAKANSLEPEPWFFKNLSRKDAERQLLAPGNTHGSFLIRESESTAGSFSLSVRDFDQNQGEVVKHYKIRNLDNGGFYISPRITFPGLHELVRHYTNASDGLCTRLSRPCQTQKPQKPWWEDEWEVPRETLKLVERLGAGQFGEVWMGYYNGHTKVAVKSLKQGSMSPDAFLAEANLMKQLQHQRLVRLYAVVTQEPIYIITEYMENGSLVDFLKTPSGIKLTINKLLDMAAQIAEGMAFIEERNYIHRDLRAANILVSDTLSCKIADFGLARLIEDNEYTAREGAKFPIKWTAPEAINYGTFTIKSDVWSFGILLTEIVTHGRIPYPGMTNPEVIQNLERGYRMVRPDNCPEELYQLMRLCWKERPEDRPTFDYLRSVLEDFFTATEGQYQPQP
Chain of Tyrosine-protein kinase Tec (Homo sapiens) (P42680 whole entry, looked up): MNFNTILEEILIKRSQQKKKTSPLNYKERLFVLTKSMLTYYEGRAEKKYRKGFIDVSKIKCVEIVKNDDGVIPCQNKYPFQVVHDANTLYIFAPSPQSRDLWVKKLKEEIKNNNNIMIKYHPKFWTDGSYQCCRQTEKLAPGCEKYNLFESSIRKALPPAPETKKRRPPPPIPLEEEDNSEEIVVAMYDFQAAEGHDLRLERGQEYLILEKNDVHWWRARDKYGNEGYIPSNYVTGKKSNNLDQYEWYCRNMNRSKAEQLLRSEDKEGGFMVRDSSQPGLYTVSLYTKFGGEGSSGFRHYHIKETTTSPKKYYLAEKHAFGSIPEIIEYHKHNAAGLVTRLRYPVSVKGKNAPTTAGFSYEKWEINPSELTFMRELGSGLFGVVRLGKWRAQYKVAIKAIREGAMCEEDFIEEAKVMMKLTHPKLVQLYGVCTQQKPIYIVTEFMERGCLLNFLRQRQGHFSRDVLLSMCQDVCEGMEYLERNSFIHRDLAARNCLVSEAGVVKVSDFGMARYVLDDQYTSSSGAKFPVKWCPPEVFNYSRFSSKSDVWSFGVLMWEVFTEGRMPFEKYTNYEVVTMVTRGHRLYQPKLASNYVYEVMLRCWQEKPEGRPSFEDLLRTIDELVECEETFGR
Chain of Proto-oncogene tyrosine-protein kinase ROS (Homo sapiens) (P08922 whole entry): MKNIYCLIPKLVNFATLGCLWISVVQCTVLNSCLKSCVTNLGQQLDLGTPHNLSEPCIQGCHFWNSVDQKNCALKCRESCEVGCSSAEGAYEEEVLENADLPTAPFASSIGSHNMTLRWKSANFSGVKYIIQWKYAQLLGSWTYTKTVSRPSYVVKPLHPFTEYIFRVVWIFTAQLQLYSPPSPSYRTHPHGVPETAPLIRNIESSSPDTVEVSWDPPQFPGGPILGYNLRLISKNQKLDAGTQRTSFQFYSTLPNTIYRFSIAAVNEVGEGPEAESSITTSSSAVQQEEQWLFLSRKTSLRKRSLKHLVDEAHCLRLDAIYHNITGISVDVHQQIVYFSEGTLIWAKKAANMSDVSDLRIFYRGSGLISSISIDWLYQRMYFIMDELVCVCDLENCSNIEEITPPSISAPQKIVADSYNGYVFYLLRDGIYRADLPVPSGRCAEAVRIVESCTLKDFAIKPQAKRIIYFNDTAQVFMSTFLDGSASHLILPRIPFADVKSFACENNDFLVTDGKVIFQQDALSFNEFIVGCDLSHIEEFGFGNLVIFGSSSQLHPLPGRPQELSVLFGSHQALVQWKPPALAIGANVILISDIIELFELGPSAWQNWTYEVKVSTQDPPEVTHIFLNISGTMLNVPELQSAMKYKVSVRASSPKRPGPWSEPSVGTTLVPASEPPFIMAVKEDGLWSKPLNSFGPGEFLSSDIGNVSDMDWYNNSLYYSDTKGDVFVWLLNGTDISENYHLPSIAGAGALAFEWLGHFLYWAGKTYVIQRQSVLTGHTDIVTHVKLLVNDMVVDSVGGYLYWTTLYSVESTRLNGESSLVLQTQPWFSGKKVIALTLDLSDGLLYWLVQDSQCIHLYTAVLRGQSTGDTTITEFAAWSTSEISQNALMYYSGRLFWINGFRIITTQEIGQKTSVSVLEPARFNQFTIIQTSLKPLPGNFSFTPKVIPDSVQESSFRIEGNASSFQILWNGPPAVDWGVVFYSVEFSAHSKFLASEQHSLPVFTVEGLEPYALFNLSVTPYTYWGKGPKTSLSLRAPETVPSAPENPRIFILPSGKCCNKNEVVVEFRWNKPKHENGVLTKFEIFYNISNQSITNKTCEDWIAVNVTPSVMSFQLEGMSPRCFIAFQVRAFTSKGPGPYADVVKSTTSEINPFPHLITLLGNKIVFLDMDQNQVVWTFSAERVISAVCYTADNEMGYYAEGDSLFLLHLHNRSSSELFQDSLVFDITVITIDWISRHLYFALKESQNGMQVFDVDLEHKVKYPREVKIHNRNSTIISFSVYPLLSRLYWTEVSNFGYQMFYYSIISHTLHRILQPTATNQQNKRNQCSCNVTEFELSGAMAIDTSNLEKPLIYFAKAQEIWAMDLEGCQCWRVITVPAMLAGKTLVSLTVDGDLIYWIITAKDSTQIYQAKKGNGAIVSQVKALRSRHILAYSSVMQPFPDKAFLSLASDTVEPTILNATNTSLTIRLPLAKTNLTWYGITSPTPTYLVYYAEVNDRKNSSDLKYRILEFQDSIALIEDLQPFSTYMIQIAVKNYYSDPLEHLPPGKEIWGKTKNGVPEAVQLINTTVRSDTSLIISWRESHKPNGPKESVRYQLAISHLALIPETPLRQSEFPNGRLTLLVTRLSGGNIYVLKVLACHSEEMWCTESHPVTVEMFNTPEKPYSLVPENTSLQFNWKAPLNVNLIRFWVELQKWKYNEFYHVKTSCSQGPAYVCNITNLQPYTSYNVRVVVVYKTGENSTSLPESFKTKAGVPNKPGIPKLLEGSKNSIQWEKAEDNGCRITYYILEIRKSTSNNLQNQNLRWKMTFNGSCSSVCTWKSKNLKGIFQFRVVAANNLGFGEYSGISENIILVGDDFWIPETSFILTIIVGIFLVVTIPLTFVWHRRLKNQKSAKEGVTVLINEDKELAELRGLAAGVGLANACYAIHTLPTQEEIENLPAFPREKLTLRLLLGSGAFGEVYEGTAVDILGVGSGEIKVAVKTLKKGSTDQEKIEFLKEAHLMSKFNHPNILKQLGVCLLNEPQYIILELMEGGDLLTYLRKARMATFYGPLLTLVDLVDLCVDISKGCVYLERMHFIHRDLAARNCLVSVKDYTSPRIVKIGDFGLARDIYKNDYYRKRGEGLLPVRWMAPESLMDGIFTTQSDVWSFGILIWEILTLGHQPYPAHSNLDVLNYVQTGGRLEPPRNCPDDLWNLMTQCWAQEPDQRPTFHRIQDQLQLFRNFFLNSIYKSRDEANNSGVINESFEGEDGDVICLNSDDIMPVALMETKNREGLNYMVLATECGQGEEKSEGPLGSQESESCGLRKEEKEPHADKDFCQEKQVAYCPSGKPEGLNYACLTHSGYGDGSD
Chain of Tyrosine-protein kinase Yes (Homo sapiens) (P07947 2-543 limits assumed): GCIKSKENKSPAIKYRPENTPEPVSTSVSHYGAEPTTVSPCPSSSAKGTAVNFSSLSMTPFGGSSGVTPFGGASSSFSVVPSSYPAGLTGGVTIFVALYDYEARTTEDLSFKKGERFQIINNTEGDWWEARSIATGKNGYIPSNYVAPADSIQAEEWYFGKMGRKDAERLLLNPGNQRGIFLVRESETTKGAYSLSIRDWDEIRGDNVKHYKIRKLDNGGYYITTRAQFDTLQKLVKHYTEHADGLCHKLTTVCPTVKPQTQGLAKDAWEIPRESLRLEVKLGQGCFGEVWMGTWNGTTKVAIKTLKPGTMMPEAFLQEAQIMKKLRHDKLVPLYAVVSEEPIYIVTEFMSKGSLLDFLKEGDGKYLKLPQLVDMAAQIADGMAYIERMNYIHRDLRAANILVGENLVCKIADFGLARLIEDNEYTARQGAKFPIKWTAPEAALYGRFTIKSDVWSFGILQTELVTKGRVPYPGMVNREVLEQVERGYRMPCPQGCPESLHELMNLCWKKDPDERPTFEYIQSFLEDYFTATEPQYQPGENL

fold change (FC) [1]: 0.03
inhibition [2]: 0%
fold change (FC) [3]: 0
inhibition [4]: 10%
SMILES: CNC(=O)c1ccccc1Oc1nc(Nc2cc(OC)c(OC)c(OC)c2)ncc1Br

fold change (FC) [5]: 0
fold change (FC) [6]: 0
fold change (FC) [7]: 0.32
SMILES: O=C(N[C@@H](C1CC1)C(F)(F)F)c1cc(-c2cnn3cc(-c4ccc(F)cc4)cnc23)cs1

fold change (FC) [8]: 0
fold change (FC) [9]: 0
SMILES: CC(C)[C@H](NC(=O)c1cc(-c2cnn3cc(-c4ccc(OCCN5CCCCC5)cc4)cnc23)cs1)C(F)(F)F
